Measured values: the supplement of paper PMC10307832

What was measured:
Assay in all cases: relative viability (nuclei count vs DMSO), 5 days (fraction); higher = more cells survive
[1] = compound: CCOC1=CC=CC=C1N=NC2=C(NN(C2=O)C3=NC(=CS3)C4=CC=CC=C4)C [BAM7] + Cc1nc(NC(=O)N2CCC[C@H]2C(N)=O)sc1-c1ccnc(C(C)(C)C(F)(F)F)c1 [Alpelisib] (partner 2 µM)
How it was run: (§1)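 One day after seeding in 1536-well plates, lung cancer cell lines were dosed by pin tool. Dosing was either single-drug or a fixed anchor-drug dose plus five library-drug doses (not always all listed) in √10 steps. After 5 days, nuclei were stained in one fix-and-stain step and counted on 4× images, and relative viability is the nuclei count of treated wells over that of vehicle wells, given as the median of duplicate plates.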

[2] = compound: CCn1c(-c2nonc2N)nc2c(C#CC(C)(C)O)ncc(OC[C@H]3CCCNC3)c21 + CC(C)C[C@H](NC(=O)[C@H](Cc1ccccc1)NC(=O)c1cnccn1)B(O)O [Bortezomib] (partner 0.002 µM)
How it was run: as §1

[3] = compound: CCn1c(-c2nonc2N)nc2c(C#CC(C)(C)O)ncc(OC[C@H]3CCCNC3)c21 + C[C@]1(O)C[C@@H](c2nc(-c3ccc4ccc(-c5ccccc5)nc4c3)c3c(N)nccn32)C1 [Linsitinib] (partner 1 µM)
How it was run: as §1

[4] = compound: CCOC1=CC=CC=C1N=NC2=C(NN(C2=O)C3=NC(=CS3)C4=CC=CC=C4)C [BAM7] + O=C(c1cc(Cc2n[nH]c(=O)c3ccccc23)ccc1F)N1CCN(C(=O)C2CC2)CC1 [Olaparib] (partner 8 µM)
How it was run: as §1

| Cell Line | relative viability ([1]; first compound 0.5 µM) | relative viability ([1]; first compound 5 µM) | relative viability ([1]; first compound 15.81 µM) | relative viability ([1]; first compound 50 µM) | relative viability ([2]; first compound 0.01 µM) | relative viability ([2]; first compound 0.03162 µM) | relative viability ([2]; first compound 0.1 µM) | relative viability ([2]; first compound 0.3162 µM) | relative viability ([2]; first compound 1 µM) | relative viability ([3]; first compound 0.01 µM) | relative viability ([3]; first compound 0.03162 µM) | relative viability ([3]; first compound 0.1 µM) | relative viability ([3]; first compound 0.3162 µM) | relative viability ([3]; first compound 1 µM) | relative viability ([4]; first compound 0.5 µM) | relative viability ([4]; first compound 5 µM) | relative viability ([4]; first compound 15.81 µM) | relative viability ([4]; first compound 50 µM) |
| --- | --- | --- | --- | --- | --- | --- | --- | --- | --- | --- | --- | --- | --- | --- | --- | --- | --- | --- |
| HCC-44 | 0.829 | 0.708 | 0.702 | 0.735 | 0.893 | 0.808 | 0.89 | 0.907 | 0.911 | 0.608 | 0.692 | 0.636 | 0.652 | 0.71 | 0.986 | 0.952 | 0.883 | 0.987 |
| HCC-827 | 1.03 | 0.97 | 1.01 | 1 | 1.07 | 1.04 | 1.09 | 0.988 | 1.02 | 0.879 | 1.03 | 0.97 | 0.942 | 0.962 | 0.0377 | 0.627 | 0.62 | 0.649 |
| NCI-H2347 | 1.03 | 1.23 | 1.04 | 0.985 | 0.644 | 0.861 |  | 0.888 | 0.933 | 1.05 | 0.983 | 0.958 | 0.904 | 0.991 | 0.588 | 0.642 | 0.625 | 0.601 |
| PC-14 | 0.983 | 0.841 | 0.915 | 0.906 | 0.966 | 0.84 | 0.956 | 0.813 | 0.852 | 0.967 | 0.975 | 0.963 | 0.849 | 0.919 | 0.305 | 0.216 | 0.161 | 0.234 |
| NCI-H1651 | 1.01 | 0.861 | 0.967 | 0.883 | 0.905 | 0.901 | 0.864 | 0.903 | 0.989 | 0.926 | 0.941 | 0.919 | 0.871 | 0.958 | 0.192 | 0.202 | 0.198 | 0.175 |
| HARA | 0.879 | 0.816 | 0.594 | 0.847 | 1.1 | 1.14 | 1.08 | 1.07 | 1.11 | 0.861 | 0.961 | 0.973 | 0.947 | 1.11 | 0.96 | 0.838 | 0.827 | 0.809 |
| NCI-H1650 |  |  |  |  | 0.214 | 0.195 | 0.223 | 0.185 | 0.202 |  |  |  |  |  | 0.734 | 0.729 | 0.737 | 0.737 |
| NCI-H1395 | 1.23 | 1.04 | 1.04 | 1.24 |  |  |  |  |  | 0.997 | 0.972 | 1.12 | 1 | 0.904 | 0.492 | 0.472 | 0.445 | 0.425 |
| LU99A | 0.588 | 0.489 | 0.532 | 0.597 | 1.21 | 1.29 | 1.04 | 1.04 | 1.08 | 0.473 | 0.524 | 0.551 | 0.579 | 0.548 | 0.272 | 0.257 | 0.312 | 0.254 |
| NCI-H1355 | 0.786 | 0.832 | 0.725 | 0.772 | 1.23 | 1.11 | 1.15 | 1.13 | 1.19 | 0.899 | 0.804 | 0.877 | 0.685 | 0.869 | 0.753 | 0.725 | 0.679 | 0.718 |
| HCC-78 | 0.395 | 0.21 | 0.294 | 0.365 | 0.553 | 0.513 | 0.503 | 0.498 | 0.527 | 0.502 | 0.496 | 0.5 | 0.424 | 0.546 | 1.02 | 0.759 | 0.631 | 0.815 |
| NCI-H1563 | 0.991 | 0.864 | 0.864 | 0.929 | 0.963 | 0.842 | 0.752 | 0.829 | 0.796 | 1.18 | 1.07 | 1.15 | 1.08 | 0.96 |  |  |  |  |
| HCC-15 | 0.907 | 0.923 | 0.883 | 0.853 | 0.988 | 1.06 | 1.01 | 0.925 | 0.952 | 0.798 | 0.932 | 0.856 | 0.816 | 0.828 | 0.849 | 0.695 | 0.687 | 0.728 |
| EKVX | 0.891 | 0.794 | 0.513 | 0.597 | 1.01 | 0.862 | 1.15 | 0.994 | 0.965 | 0.997 | 0.952 | 1.03 | 0.954 | 0.976 | 0.863 | 0.929 | 0.839 | 0.788 |
| NCI-H2087 | 1.17 | 1.15 | 0.917 | 0.985 | 0.682 | 0.873 | 0.655 | 0.766 | 0.774 | 0.966 | 0.746 | 0.932 | 0.924 | 0.838 | 0.683 | 0.685 | 0.559 | 0.456 |
| LK-2 | 1.14 | 1.78 | 1.16 | 0.874 |  |  |  |  |  | 0.7 | 0.715 | 0.422 | 0.746 | 0.559 | 0.885 | 0.891 | 0.918 | 0.666 |
| NCI-H1437 | 1.07 | 1 | 0.911 | 0.909 | 0.616 | 0.538 | 0.593 | 0.357 | 0.483 | 0.948 | 1.05 | 1.04 | 1.01 | 0.956 | 0.557 | 0.546 | 0.526 | 0.492 |
| COR-L23 | 0.804 | 0.714 | 0.685 | 0.752 | 1.01 | 0.961 | 0.97 | 0.884 | 0.938 | 0.891 | 0.946 | 0.884 | 0.805 | 0.829 | 0.379 | 0.343 | 0.332 | 0.346 |
| ABC-1 | 1.37 | 0.968 | 0.851 | 0.914 | 0.292 | 0.299 | 0.301 | 0.332 | 0.294 | 0.818 | 0.73 | 0.847 | 0.685 | 0.526 | 0.765 | 1.25 | 0.638 | 0.559 |
